Experiments:
Type in all cases: biochemical
JAK3 = JAK3 (Homo sapiens (Human), UniProt P52333); experiment: In vitro JAK kinase assay (TR-FRET), JAK3; details: catalytic domain aa 795-1124, GST-fusion; ATP 0.6 μM; peptide 140 nM; 30 minutes at room temperature
Description: (§1) Compounds were screened for their ability to inhibit JAK1, JAK2 and JAK3 using the assays as indicated below. […] The enzymatic activity was assayed using as substrate a biotinylated peptide, poly (GT)-Biotin (CisBio). […] The degree of phosphorylation was detected by TR-FRET (time-resolved fluorescence energy transfer). […] The enzymatic reactions took place for 30 minutes at room temperature. […] Incubate for 3 h and read on Victor 2V spectrofluorometer (Perkin Elmer) set to read fluorescence resonance energy transfer.

JAK2 = JAK2 (Homo sapiens (Human), UniProt O60674); experiment: In vitro JAK kinase assay (TR-FRET), JAK2; details: catalytic domain aa 826-1132, GST-fusion; ATP 0.2 μM; peptide 20 nM; 30 minutes at room temperature
Sequence of JAK2 (O60674 826-1132): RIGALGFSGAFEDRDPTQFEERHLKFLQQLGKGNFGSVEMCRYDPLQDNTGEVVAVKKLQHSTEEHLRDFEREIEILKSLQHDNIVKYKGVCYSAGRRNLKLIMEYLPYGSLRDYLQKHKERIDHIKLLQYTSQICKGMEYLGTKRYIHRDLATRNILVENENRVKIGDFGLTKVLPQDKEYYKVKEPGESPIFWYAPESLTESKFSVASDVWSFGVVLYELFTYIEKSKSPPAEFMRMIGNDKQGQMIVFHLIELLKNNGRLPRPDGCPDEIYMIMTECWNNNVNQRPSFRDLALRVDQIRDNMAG
Description: as §1

JAK1 = JAK1 (Homo sapiens (Human), UniProt P23458); experiment: In vitro JAK kinase assay (TR-FRET), JAK1; details: catalytic domain aa 850-1154, GST-fusion; ATP 3 μM; peptide 60 nM; 30 minutes at room temperature
Sequence of JAK1 (P23458 850-1154): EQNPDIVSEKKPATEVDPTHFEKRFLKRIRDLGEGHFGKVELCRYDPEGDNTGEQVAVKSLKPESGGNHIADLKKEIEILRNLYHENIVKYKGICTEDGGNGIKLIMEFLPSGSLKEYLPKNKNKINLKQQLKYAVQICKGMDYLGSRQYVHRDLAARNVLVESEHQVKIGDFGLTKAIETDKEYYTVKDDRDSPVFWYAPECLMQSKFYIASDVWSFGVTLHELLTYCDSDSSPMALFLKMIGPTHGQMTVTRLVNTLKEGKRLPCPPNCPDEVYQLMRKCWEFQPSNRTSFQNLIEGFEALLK
Description: as §1

Sequence of JAK3 (P52333 795-1124): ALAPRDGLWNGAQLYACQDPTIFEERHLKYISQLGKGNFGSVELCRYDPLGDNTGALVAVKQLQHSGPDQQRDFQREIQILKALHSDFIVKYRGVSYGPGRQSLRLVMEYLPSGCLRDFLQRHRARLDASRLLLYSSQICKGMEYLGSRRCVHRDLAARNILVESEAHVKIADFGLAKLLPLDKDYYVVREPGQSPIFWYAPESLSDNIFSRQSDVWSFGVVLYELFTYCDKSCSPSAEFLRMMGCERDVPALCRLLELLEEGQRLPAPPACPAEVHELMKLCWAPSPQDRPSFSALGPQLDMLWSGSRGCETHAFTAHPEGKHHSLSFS

Molecule | IC50 (JAK3) [nM] | IC50 (JAK2) [nM] | IC50 (JAK1) [nM]
CCOC(=O)c1nc(-c2cnn3ccccc23)nc(N[C@@H]2CCCN(C(=O)CO)C2)c1F [Example 46, Ethyl 5-fluoro-6-{[(3R)-1-glycoloylpiperidin-3-yl]amino}-2-pyrazolo[1,5-a]pyridin-3-ylpyrimidine-4-carboxylate] | 4 | 3 | 10
COc1cc(N[C@@H]2CCCN(C(=O)CO)C2)nc(-c2cnn3ccccc23)n1 [Example 94, 2-{(3R)-3-[(6-Methoxy-2-pyrazolo[1,5-a]pyridin-3-ylpyrimidin-4-yl)amino]piperidin-1-yl}-2-oxoethanol] | 7 | 1 | 7
O=C(CO)N1CCC[C@@H](Nc2nc(-c3cnn4ccccc34)nc(-c3ccnc(CO)c3)c2F)C1 [Example 37, 2-[(3R)-3-({5-Fluoro-6-[2-(hydroxymethyl)pyridin-4-yl]-2-pyrazolo[1,5-a]pyridin-3-ylpyrimidin-4-yl}amino)piperidin-1-yl]-2-oxoethanol] | 7 | 1 | 2
N#CC[C@H]1CC[C@H](Nc2nc(-c3cnn4ccccc34)nc(N3CCNCC3)c2F)CC1 [Example 3, {Trans-4-[(5-fluoro-6-piperazin-1-yl-2-pyrazolo[1,5-a]pyridin-3-ylpyrimidin-4-yl)amino]cyclohexyl}acetonitrile] | 4 | 0.8 | 150
C[C@H](CO)Oc1nc(-c2cnn3ccccc23)nc(N[C@@H]2CCCN(C(=O)CO)C2)c1F [Example 61, (2R)-2-[(5-Fluoro-6-{[(3R)-1-glycoloylpiperidin-3-yl]amino}-2-pyrazolo[1,5-a]pyridin-3-ylpyrimidin-4-yl)oxy]propan-1-ol] | 8 | 10 | 58
COc1ccc(-c2nc(-c3cnn4ccccc34)nc(N[C@@H]3CCCN(C(=O)CC#N)C3)c2F)cn1 [Example 19, 3-((3R)-3-{[5-fluoro-6-(6-methoxypyridin-3-yl)-2-pyrazolo[1,5-a]pyridin-3-ylpyrimidin-4-yl]amino}piperidin-1-yl)-3-oxopropanenitrile] | 2 | 0.3 | 2
O=C(CO)N1CCC[C@@H](Nc2nc(-c3cnn4ccccc34)nc(-c3cccnc3)c2F)C1 [Example 62, 2-{(3R)-3-[(5-Fluoro-2-pyrazolo[1,5-a]pyridin-3-yl-6-pyridin-3-ylpyrimidin-4-yl)amino]piperidin-1-yl}-2-oxoethanol] | 7 | 1 | 4
COCCOc1nc(-c2cnn3ccccc23)nc(N[C@@H]2CCCN(C(=O)CO)C2)c1F [Example 39, 2-((3R)-3-{[5-Fluoro-6-(2-methoxyethoxy)-2-pyrazolo[1,5-a]pyridin-3-ylpyrimidin-4-yl]amino}piperidin-1-yl)-2-oxoethanol] | 3 | 0.8 | 11
COc1nc(-c2cnn3ccccc23)nc(O[C@@H]2CCCN(C(=O)CC#N)C2)c1F [Example 64, 3-{(3R)-3-[(5-Fluoro-6-methoxy-2-pyrazolo[1,5-a]pyridin-3-ylpyrimidin-4-yl)oxy]piperidin-1-yl}-3-oxopropanenitrile] | 4 | 3 | 28
O=C(CO)N1CCC[C@@H](Nc2nc(-c3cnn4ccccc34)nc(-c3ccncc3)c2F)C1 [Example 80, 2-{(3R)-3-[(5-Fluoro-2-pyrazolo[1,5-a]pyridin-3-yl-6-pyridin-4-ylpyrimidin-4-yl)amino]piperidin-1-yl}-2-oxoethanol] | 4 | 1 | 2
3-{(3R)-3-[(6-Methoxy-2-pyrazolo[1,5-a]pyridin-3-ylpyrimidin-4-yl)amino]piperidin-1-yl}-3-oxopropanenitrile [Example 95] | 7 | 3 | 3
N#CCC(=O)N1CCC[C@@H](Nc2cc(-c3cncc(O)c3)nc(-c3cnn4ccccc34)n2)C1 [Example 106, 3-((3R)-3-{[6-(5-Hydroxypyridin-3-yl)-2-pyrazolo[1,5-a]pyridin-3-ylpyrimidin-4-yl]amino}piperidin-1-yl)-3-oxopropanenitrile] | 1 | 1 | 1
O=C(CO)N1CCC[C@@H](Oc2nc(-c3cnn4ccccc34)nc(NCCO)c2F)C1 [Example 69, 2-[(3R)-3-({5-Fluoro-6-[(2-hydroxyethyl)amino]-2-pyrazolo[1,5-a]pyridin-3-ylpyrimidin-4-yl}oxy)piperidin-1-yl]-2-oxoethanol] | 11 | 3 | 37
Cc1ccn2ncc(-c3nc(N[C@@H]4CCCN(C(=O)CO)C4)c(F)c(N4CCOCC4)n3)c2c1 [Example 29, 2-((3R)-3-{[5-Fluoro-2-(5-methylpyrazolo[1,5-a]pyridin-3-yl)-6-morpholin-4-ylpyrimidin-4-yl]amino}piperidin-1-yl)-2-oxoethanol] | 10 | 4 | 27
N#CCC(=O)N1CCC[C@@H](Nc2nc(-c3cnn4ccccc34)nc(-c3ccnc(CO)c3)c2F)C1 [Example 78, 3-[(3R)-3-({5-Fluoro-6-[2-(hydroxymethyl)pyridin-4-yl]-2-pyrazolo[1,5-a]pyridin-3-ylpyrimidin-4-yl}amino)piperidin-1-yl]-3-oxopropanenitrile] | 1 | 0.5 | 2
CCOC(=O)c1ccc(-c2nc(-c3cnn4ccccc34)nc(N[C@@H]3CCCN(C(=O)CO)C3)c2F)cn1 [Example 38, Ethyl 5-(5-fluoro-6-{[(3R)-1-glycoloylpiperidin-3-yl]amino}-2-pyrazolo[1,5-a]pyridin-3-ylpyrimidin-4-yl)pyridine-2-carboxylate] | 6 | 2 | 4
COc1nc(-c2cnn3ccccc23)nc(N[C@@H]2CCCN(C(=O)CO)C2)c1C [Example 93, 2-{(3R)-3-[(6-Methoxy-5-methyl-2-pyrazolo[1,5-a]pyridin-3-ylpyrimidin-4-yl)amino]piperidin-1-yl}-2-oxoethanol] | 6 | 3 | 23
COC[C@H](C)Oc1nc(-c2cnn3ccccc23)nc(N[C@@H]2CCCN(C(=O)CO)C2)c1F [Example 58, 2-[(3R)-3-({5-Fluoro-6-[(1S)-2-methoxy-1-methylethoxy]-2-pyrazolo[1,5-a]pyridin-3-ylpyrimidin-4-yl}amino)piperidin-1-yl]-2-oxoethanol] | 7 | 2 | 66
Cc1cc(-c2nc(-c3cnn4ccccc34)nc(N[C@@H]3CCCN(C(=O)CO)C3)c2F)cc(C)n1 [Example 86, 2-((3R)-3-{[6-(2,6-Dimethylpyridin-4-yl)-5-fluoro-2-pyrazolo[1,5-a]pyridin-3-ylpyrimidin-4-yl]amino}piperidin-1-yl)-2-oxoethanol] | 1 | 3 | 1
CCOC(=O)C1(C)CCN(c2nc(-c3cnn4ccccc34)nc(N[C@@H]3CCCN(C(=O)CO)C3)c2F)CC1 [Example 28, Ethyl 1-(5-fluoro-6-{[(3R)-1-glycoloylpiperidin-3-yl]amino}-2-pyrazolo[1,5-a]pyridin-3-ylpyrimidin-4-yl)-4-methylpiperidine-4-carboxylate] | 3 | 0.8 | 5
O=C(CO)N1CCC[C@@H](Nc2nc(-c3cnn4ccccc34)nc(OCC(F)F)c2F)C1 [Example 50, 2-((3R)-3-{[6-(2,2-Difluoroethoxy)-5-fluoro-2-pyrazolo[1,5-a]pyridin-3-ylpyrimidin-4-yl]amino}piperidin-1-yl)-2-oxoethanol] | 9 | 3 | 15
3-((3R)-3-{[5-Fluoro-6-(4-hydroxypiperidin-1-yl)-2-pyrazolo[1,5-a]pyridin-3-ylpyrimidin-4-yl]oxy}piperidin-1-yl)-3-oxopropanenitrile [Example 76] | 5 | 1 | 9
O=C(CO)N1CCC[C@@H](Oc2nc(-c3cnn4ccccc34)nc(OCCO)c2F)C1 [Example 65, 2-((3R)-3-{[5-Fluoro-6-(2-hydroxyethoxy)-2-pyrazolo[1,5-a]pyridin-3-ylpyrimidin-4-yl]oxy}piperidin-1-yl)-2-oxoethanol] | 9 | 2 | 38
COC[C@@H](C)Oc1nc(-c2cnn3ccccc23)nc(N[C@@H]2CCCN(c3cnc(C#N)cn3)C2)c1F [Example 91, 5-[(3R)-3-({5-Fluoro-6-[(1R)-2-methoxy-1-methylethoxy]-2-pyrazolo[1,5-a]pyridin-3-ylpyrimidin-4-yl}amino)piperidin-1-yl]pyrazine-2-carbonitrile] | 5 | 2 | 114
O=C(CO)N1CCC[C@@H](Nc2nc(-c3cnn4ccccc34)nc(O)c2F)C1 [Example 43, 5-Fluoro-6-{[(3R)-1-glycoloylpiperidin-3-yl]amino}-2-pyrazolo[1,5-a]pyridin-3-ylpyrimidin-4-ol] | 1 | 0.7 | 4
(5-{(3R)-3-[(5-fluoro-6-methoxy-2-pyrazolo[1,5-a]pyridin-3-ylpyrimidin-4-yl)amino]piperidin-1-yl}pyrazin-2-yl)methanol [Example 55] | 33 | 12 | 170

From US10759793B2, “2-(pyrazolopyridin-3-yl)pyrimidine derivatives as JAK inhibitors” (ALMIRALL, S.A., priority 2015, dated 2020)
